According to patent US20250073165A1, “OLANZAPINE, COMPOSITIONS THEREOF AND METHODS OF USE THEREOF” (Teva Pharmaceuticals International GmbH, priority 2022, published 2025):

Assays:
[1] = Flow function by FT4 Powder Rheometer, shear test 9 kPa; type: physicochemical; conditions: 9 kPa shear test, 1 ml cell
Experimental: The flow function (FF) was determined by using FT4 Powder Rheometer, Freeman FT4 instrument, and standard Freeman shear test −9 kPa (using small cell 1 ml), according to the procedure below: • Compact to 9 kPa for 60 s • Pre shear hold 7 kPa for 16 s • Shear test at 7 kPa (Shear at 18°/min for 10°, auto detected peak torque yes) • Pre shear hold 6 kPa for 16 s • Shear test at 6 kPa (Shear at 18°/min for 10°, auto detected peak torque yes) • Pre shear hold 5 kPa for 16 s • Shear test at 5 kPa (Shear at 18°/min for 10°, auto detected peak torque yes) • Pre shear hold 4 kPa for 16 s • Shear test at 4 kPa (Shear at 18°/min for 10°, auto detected peak torque yes) • Pre shear hold 3 kPa for 16 s • Shear test at 3 kPa (Shear at 18°/min for 10°, auto detected peak torque yes)

[2] = Particle size distribution (PSD) by laser diffraction, Malvern Mastersizer 2000; type: physicochemical
Experimental: (§1) For the purposes herein, particle size distribution (PSD) is determined as the percent volume, i.e. D(90) and D(3,2) and was measured by laser diffraction using a Malvern Mastersizer 2000 equipped with a Hydro 2000 S dispersion unit.
(§2) The measurements were performed in saturated water dispersion medium (refractive index=[…] (general purpose)). The water was saturated with olanzapine to prevent dissolution of the sample while measuring. Dispersion medium was prepared by adding about 3 gm olanzapine to 1 liter water, sonicating in an ultrasound bath for 30 min and filtering (0.22-0.45 μm). The samples were added as concentrated suspension under stirring until an obscuration rate of 10-20% was reached. The results were values arising from ten measurement cycles with a recirculation time (after sonification) of 30 sec.
(§3) Sample preparation: Samples were prepared as concentrated suspensions. About 50-100 mg of the olanzapine sample was added with a spatula to a small sized glass beaker and several drops of saturated water dispersion medium was added. A paste was obtained by mild mixing, and an additional quantity (1 ml) of saturated water dispersion medium was added in order to obtain a concentrated homogeneous suspension.

[3] = Bulk/tapped density, Ph. Eur. 2.9.34 Method 1, ERWEKA SVM 122; type: physicochemical; conditions: Table 1
Experimental: Bulk density/tapped density were determined by European Pharmacopoeia 2.9.34. Method 1 (https://www.drugfuture.com/Pharmacopoeia/EP7/DATA/20934E.PDF; PDF downloaded Nov. 14, 2021).
The bulk and tapped densities were determined using the Tapped Density Tester SVM 122 from ERWEKA, equipped with a 100 mL glass cylinder. Approximately 30 g of the powder was carefully poured into the 100 mL measuring cylinder with a funnel. Bulk density was calculated by dividing the amount of powder (in gram) by the measured volume (mL). The tapped density was then determined as follows:
If the difference between V500 and V1250 was bigger than 2 mL, taps were repeated: i.e. tapped another 1250× and repeated until difference was below 2 mL. • Bulk density=sample weight/volume before tapping. • Tapped density=weight/volume after tapping. • Calculation: […]

[4] = PSD of bulk API compared to PSD of API in vial after dry heat sterilization; type: physicochemical; conditions: for D(3,2) / D(90): Table 3, bulk API or API in vial after dry heat sterilization 150-160° C., two hours, per sample name
Experimental: as §1, §2, §3
Closed and crimped vials filled with API were terminally sterilized at 150-160° C. using dry heat for two hours in dry heat oven SP-470 by Kambič (Slovenia). Additional methods of terminal sterilization include radiation including for example, gamma radiation, X-ray, electron beam and the like with similar results. Alternatively, the API may be prepared aseptically
The manufacturing process for the final drug product includes a terminal sterilization step, and specifically the quality of the bulk API should not be affected by sterilization. Therefore, after the dry heat sterilization, samples of API in vials filled with two batches (with low PSD) were analyzed for PSD and compared to starting API material.

[5] = background statement; cited from earlier work
[6] = Table 4, listed as Olanzapine S2-920
[7] = Table 4, listed as Olanzapine S3-020
[8] = Table 4, listed as Olanzapine S1-920
[9] = Table 4, listed as Olanzapine M1-010
[10] = Table 4, listed as Olanzapine M7-121
[11] = Table 4, listed as Olanzapine M6-020
[12] = Table 4, listed as Olanzapine S3-221
[13] = Table 4, listed as Olanzapine S1-220

| SMILES | Flow function [1] | D(3,2) ([2]; Table 1, bulk API batch) [μm] | D(90) ([2]; Table 1, bulk API batch) [μm] | TD (tapped density) [3] [g/mL] | D(3,2) [4] [μm] | D(90) [4] [μm] | other results |
| --- | --- | --- | --- | --- | --- | --- | --- |
| Cc1cc2c(s1)Nc1ccccc1N=C2N1CCN(C)CC1 [Batch S2-920, 2-methyl-4-(4-methyl-1-piperazinyl)-10H-thieno[2,3-b][1,5]benzodiazepine] | 2.0 | 7.6 | 38 | 0.45 |  |  | D(90) [2, 6]: 38 μm; D(100) [2, 6]: 136 μm |
| Cc1cc2c(s1)Nc1ccccc1N=C2N1CCN(C)CC1 [Olanzapine S2-121, 2-methyl-4-(4-methyl-1-piperazinyl)-10H-thieno[2,3-b][1,5]benzodiazepine] |  |  |  |  |  |  | D(90) ([2]; Table 4): 27 μm; D(100) ([2]; Table 4): 196 μm |
| Cc1cc2c(s1)Nc1ccccc1N=C2N1CCN(C)CC1 [Batch M2-121, 2-methyl-4-(4-methyl-1-piperazinyl)-10H-thieno[2,3-b][1,5]benzodiazepine] | 1.5 | 6.4 | 30 | 0.39 | 7.5 | 40 |  |
| Cc1cc2c(s1)Nc1ccccc1N=C2N1CCN(C)CC1 [Batch S3-020, 2-methyl-4-(4-methyl-1-piperazinyl)-10H-thieno[2,3-b][1,5]benzodiazepine] | 1.3 | 5.4 | 17 | 0.28 | 5.2 | 16 | PSD curves before and after sterilization ([4]; FIG. 4B): highly similar; D(90) [2, 7]: 16 μm; D(100) [2, 7]: 90 μm |
| Cc1cc2c(s1)Nc1ccccc1N=C2N1CCN(C)CC1 [Batch S1-920, 2-methyl-4-(4-methyl-1-piperazinyl)-10H-thieno[2,3-b][1,5]benzodiazepine] | 1.2 | 4.1 | 11 | 0.29 | 3.9 | 11 | D(90) [2, 8]: 11 μm; D(100) [2, 8]: 21 μm |
| Cc1cc2c(s1)Nc1ccccc1N=C2N1CCN(C)CC1 [Batch M1-010, 2-methyl-4-(4-methyl-1-piperazinyl)-10H-thieno[2,3-b][1,5]benzodiazepine] | 1.4 | 4.2 | 13 | 0.37 | 4.7 | 14 | D(90) [2, 9]: 14 μm; D(100) [2, 9]: 42 μm |
| Cc1cc2c(s1)Nc1ccccc1N=C2N1CCN(C)CC1 [Batch M7-121, 2-methyl-4-(4-methyl-1-piperazinyl)-10H-thieno[2,3-b][1,5]benzodiazepine] | 2.1 | 8.3 | 42 | 0.50 |  |  | D(90) [2, 10]: 40 μm; D(100) [2, 10]: 205 μm |
| Cc1cc2c(s1)Nc1ccccc1N=C2N1CCN(C)CC1 [Batch M6-020, 2-methyl-4-(4-methyl-1-piperazinyl)-10H-thieno[2,3-b][1,5]benzodiazepine] | 2.0 | 6.6 | 24 | 0.41 | 6.5 | 24 | D(90) [2, 11]: 24 μm; D(100) [2, 11]: 205 μm |
| Cc1cc2c(s1)Nc1ccccc1N=C2N1CCN(C)CC1 [Olanzapine, 2-methyl-4-(4-methyl-1-piperazinyl)-10H-thieno[2,3-b][1,5]benzodiazepine] |  |  |  |  |  |  | Water solubility [5]: poor |
| Cc1cc2c(s1)Nc1ccccc1N=C2N1CCN(C)CC1 [Batch S3-221, 2-methyl-4-(4-methyl-1-piperazinyl)-10H-thieno[2,3-b][1,5]benzodiazepine] | 1.8 | 6.4 | 26 | 0.40 |  |  | D(90) [2, 12]: 24 μm; D(100) [2, 12]: 61 μm |
| Cc1cc2c(s1)Nc1ccccc1N=C2N1CCN(C)CC1 [Batch S1-220, 2-methyl-4-(4-methyl-1-piperazinyl)-10H-thieno[2,3-b][1,5]benzodiazepine] | 1.5 | 6.1 | 26 | 0.39 | 5.8 | 29 | D(90) [2, 13]: 29 μm; D(100) [2, 13]: 142 μm |
| Cc1cc2c(s1)Nc1ccccc1N=C2N1CCN(C)CC1 [Olanzapine S4-221, 2-methyl-4-(4-methyl-1-piperazinyl)-10H-thieno[2,3-b][1,5]benzodiazepine] |  |  |  |  |  |  | D(90) ([2]; Table 4): 26 μm; D(100) ([2]; Table 4): 110 μm |
